Experimental data taken from US8642801B2 (BHI Limited Partnership, priority 2003, dated 2014).

Target: T1, Aβ40 and Aβ42 peptides in plasma and brain of TgCRND8 mice (Homo sapiens, UniProt P05067)
T1 construct: ELISA using Human Aβ40 and Aβ42 Fluorometric ELISA kits from Biosource; from tissue; host or cells: plasma and brain homogenate of TgCRND8 transgenic mice (hAPP transgene)
Experiment: Short term treatment in adult transgenic CRND8 mice overexpressing βAPP: Aβ levels in plasma and brain by ELISA
Assay type: in vivo, Mouse
Details: for Brain homogenate Aβ40 Change Soluble / Brain homogenate Aβ42 Change Insoluble / Brain homogenate Aβ42 Change Soluble / Brain homogenate Aβ40 Change Insoluble / Plasma Aβ42 Change / Plasma Aβ40 Change: TgCRND8 mice
Description: Transgenic mice, […]8, expressing the human amyloid precursor protein (hAPP) develop a pathology resembling Alzheimer's disease. In particular, high levels of Aβ40 and Aβ 42 have been documented in the plasma and the brain of these animals at 8-9 weeks of age, followed by early accumulation of amyloid plaques similar to the senile plaques observed in AD patients. These animals also display progressive cognitive deficits that parallel the appearance of degenerative changes. See, […], et al., J. Biol. Chem. 276, 21562-70 (2001). The short term therapeutic effect of 19 compounds of the invention was studied. […] The following abbreviations are used to designate these animals from the 3rd and 4th generation backcross in the present protocol: TgCRND8-2.B6C3F1(N3); TgCRND8-2.B6C3F1(N4). Baseline animals (Group 1) consisted of naive TgCRND8-2. B6C3F1(N3) at 11±1 weeks of age. These mice were used to determine the Aβ levels in the plasma and brain of naive transgenic animals at the initiation of treatment. […] At the end of the treatment periods, plasma and perfused brains were collected for quantification of Aβ levels. […] Plasma samples were immediately frozen and stored at -80° C. pending analysis. The brains were removed, frozen, and stored at -80° C. awaiting analysis. […] Samples were spun at 15000 g for 20 minutes and the supernatants were transferred to fresh tubes. […] The tubes were vortexed for 30 seconds and frozen at -80° C. […] Samples were thawed at room temperature, sonicated at 80° C. for 15 minutes and frozen again. This cycle was repeated 3 times to ensure homogeneity and samples were returned to -80° C. pending analysis. Aβ levels were evaluated in plasma and brain samples by ELISA using Human Aβ40 and Aβ42 Fluorometric ELISA kits from Biosource (Cat. […] In short, samples were thawed at room temperature, sonicated for 5 minutes at 80° C. (sonication for brain homogenates; no sonication for plasma samples) and kept on ice. Aβ peptides were captured using 100 μl of the diluted samples to the plate and incubated without shaking at 4° C. overnight. The samples were aspirated and the wells were rinsed 4 times with wash buffer obtained from the Biosource ELISA kit. The anti-Aβ40 or anti-Aβ42 rabbit polyclonal antiserum (specific for the Aβ40 or Aβ42 peptide) was added (100 μl) and the plate was incubated at room temperature for 2 hours with shaking. The wells were aspirated and washed 4 times before adding 100 μl of the alkaline phosphatase labeled anti-rabbit antibody and incubating at room temperature for 2 hours with shaking. The plates were then rinsed 5 times and the fluorescent substrate (100 μl) was added to the plate. The plate was incubated for 35 minutes at room temperature and the plate was read using a titer plate reader at an excitation wavelength of 460 nm and emission at 560 nm Compounds were scored based on their ability to modulate levels of Aβ peptides in the plasma and the cerebral soluble/insoluble levels in the brain. Levels of Aβ observed in the plasma and brain of treated animals were normalized using values from vehicle-treated (water) or methylcellulose-treated control groups and ranked according to the strength of the pharmacological effect. Increases in the levels of Aβ peptides are indicated using “+” symbols, while decreases in the levels of Aβ peptides are indicated using “-” symbols. The strongest effects are recorded as “+++” or “- - -” while the weakest are shown as “+” or “-”.

[1] = Brain Homogenate Methylcellulose Group, Day 14, 250 mg/kg daily oral
[2] = Brain Homogenate Methylcellulose Group, Day 28, 250 mg/kg daily oral
[3] = Brain Homogenate Vehicle Group, Day 14, 250 mg/kg daily
[4] = Brain Homogenate Vehicle Group, Day 28, 250 mg/kg daily
[5] = Plasma Vehicle Group, Day 14, 250 mg/kg daily subcutaneous, normalized to water vehicle control
[6] = Plasma Vehicle Group, Day 28, 250 mg/kg daily subcutaneous, normalized to water vehicle control
[7] = Brain Homogenate Vehicle Group, Day 28, total levels, soluble and insoluble not measured independently, 250 mg/kg daily

## CC12CC3CC(C)(C1)CC(NCCCS(=O)(=O)O)(C3)C2 [CY]
[1]
  Brain homogenate Aβ40 Change Soluble: − (Decreases in the levels of Aβ of 5 to 19% are scored as “−”)
  Brain homogenate Aβ42 Change Insoluble: ++ (increases of 40 to 69% are scored as “++”)
  Brain homogenate Aβ42 Change Soluble: +++ (increases of 70% or higher are scored as “+ + +”)
[2]
  Brain homogenate Aβ40 Change Insoluble: +++ (increases of 70% or higher are scored as “+ + +”)
  Brain homogenate Aβ40 Change Soluble: ++ (increases of 40 to 69% are scored as “++”)
  Brain homogenate Aβ42 Change Insoluble: + (increases in the levels of Aβ (relative to untreated control) of 20 to 39% are scored as “+”)
  Brain homogenate Aβ42 Change Soluble: +++ (increases of 70% or higher are scored as “+ + +”)
Plasma Methylcellulose Group, Day 28, 250 mg/kg daily oral in 1% methylcellulose, normalized to methylcellulose control
  Plasma Aβ42 Change: + (increases in the levels of Aβ (relative to untreated control) of 20 to 39% are scored as “+”)

## COCC(NCCCS(=O)(=O)O)[C@@H](O)c1ccccc1 (stereo in doubt) [EG, 3-[(1R,2S)-2-hydroxy-1-(methoxymethyl)-2-phenylethyl]amino-1-propanesulfonic acid]
[3]
  Brain homogenate Aβ40 Change Insoluble: −− (decreases of 20 to 38% are scored as “− −”)
  Brain homogenate Aβ40 Change Soluble: − (Decreases in the levels of Aβ of 5 to 19% are scored as “−”)
  Brain homogenate Aβ42 Change Insoluble: −− (decreases of 20 to 38% are scored as “− −”)
  Brain homogenate Aβ42 Change Soluble: −− (decreases of 20 to 38% are scored as “− −”)
[4]
  Brain homogenate Aβ40 Change Insoluble: −− (decreases of 20 to 38% are scored as “− −”)
  Brain homogenate Aβ42 Change Insoluble: −− (decreases of 20 to 38% are scored as “− −”)

## CC(C)(CO)NCCCS(=O)(=O)O [DH, 3-(1,1-dimethyl-2-hydroxyethyl)amino-1-propanesulfonic acid]
[3]
  Brain homogenate Aβ40 Change Insoluble: −− (decreases of 20 to 38% are scored as “− −”)
  Brain homogenate Aβ42 Change Insoluble: −−− (decreases of 39% or more are scored as “− − −”)
  Brain homogenate Aβ42 Change Soluble: −−− (decreases of 39% or more are scored as “− − −”)
[4]
  Brain homogenate Aβ40 Change Insoluble: − (Decreases in the levels of Aβ of 5 to 19% are scored as “−”)
  Brain homogenate Aβ42 Change Insoluble: − (Decreases in the levels of Aβ of 5 to 19% are scored as “−”)

## C#CC1(NCCCS(=O)(=O)O)CCCCC1 [DX, 3-(1-ethynylcyclohexyl)amino-1-propanesulfonic acid]
[3]
  Brain homogenate Aβ40 Change Insoluble: −− (decreases of 20 to 38% are scored as “− −”)
  Brain homogenate Aβ42 Change Insoluble: − (Decreases in the levels of Aβ of 5 to 19% are scored as “−”)
[4]
  Brain homogenate Aβ40 Change Insoluble: −− (decreases of 20 to 38% are scored as “− −”)
  Brain homogenate Aβ42 Change Insoluble: −− (decreases of 20 to 38% are scored as “− −”)
  Brain homogenate Aβ42 Change Soluble: − (Decreases in the levels of Aβ of 5 to 19% are scored as “−”)

## CCC(CC)NCCCS(=O)(=O)O [DD, 3-(3-pentyl)amino-1-propanesulfonic acid]
[3]
  Brain homogenate Aβ40 Change Insoluble: − (Decreases in the levels of Aβ of 5 to 19% are scored as “−”)
[4]
  Brain homogenate Aβ40 Change Insoluble: − (Decreases in the levels of Aβ of 5 to 19% are scored as “−”)

## CC(C)(NCCCS(=O)(=O)O)c1ccccc1 [DM, 3-cumylamino-1-propanesulfonic acid]
[3]
  Brain homogenate Aβ40 Change Insoluble: + (increases in the levels of Aβ (relative to untreated control) of 20 to 39% are scored as “+”)
  Brain homogenate Aβ42 Change Insoluble: − (Decreases in the levels of Aβ of 5 to 19% are scored as “−”)
  Brain homogenate Aβ42 Change Soluble: − (Decreases in the levels of Aβ of 5 to 19% are scored as “−”)
[4]
  Brain homogenate Aβ40 Change Insoluble: −− (decreases of 20 to 38% are scored as “− −”)
  Brain homogenate Aβ40 Change Soluble: − (Decreases in the levels of Aβ of 5 to 19% are scored as “−”)
  Brain homogenate Aβ42 Change Insoluble: −− (decreases of 20 to 38% are scored as “− −”)
  Brain homogenate Aβ42 Change Soluble: −− (decreases of 20 to 38% are scored as “− −”)

## O=S(=O)(O)CC(O)CNC1CCCCC1 (stereo not drawn) [DC]
[3]
  Brain homogenate Aβ40 Change Insoluble: −− (decreases of 20 to 38% are scored as “− −”)
  Brain homogenate Aβ42 Change Insoluble: −− (decreases of 20 to 38% are scored as “− −”)
  Brain homogenate Aβ42 Change Soluble: + (increases in the levels of Aβ (relative to untreated control) of 20 to 39% are scored as “+”)
[4]
  Brain homogenate Aβ40 Change Insoluble: + (increases in the levels of Aβ (relative to untreated control) of 20 to 39% are scored as “+”)
  Brain homogenate Aβ40 Change Soluble: − (Decreases in the levels of Aβ of 5 to 19% are scored as “−”)
  Brain homogenate Aβ42 Change Insoluble: +++ (increases of 70% or higher are scored as “+ + +”)
  Brain homogenate Aβ42 Change Soluble: ++ (increases of 40 to 69% are scored as “++”)
[5]
  Plasma Aβ40 Change: ++ (increases of 40 to 69% are scored as “++”)
  Plasma Aβ42 Change: ++ (increases of 40 to 69% are scored as “++”)
[6]
  Plasma Aβ40 Change: ++ (increases of 40 to 69% are scored as “++”)

## CC1CC(NCCCS(=O)(=O)O)CC(C)(C)C1 (stereo not drawn) [ED, 3-(3,3,5-trimethylcyclohexyl)amino-1-1-propanesulfonic acid]
[3]
  Brain homogenate Aβ40 Change Insoluble: + (increases in the levels of Aβ (relative to untreated control) of 20 to 39% are scored as “+”)
  Brain homogenate Aβ40 Change Soluble: − (Decreases in the levels of Aβ of 5 to 19% are scored as “−”)
[4]
  Brain homogenate Aβ40 Change Insoluble: −− (decreases of 20 to 38% are scored as “− −”)
  Brain homogenate Aβ40 Change Soluble: − (Decreases in the levels of Aβ of 5 to 19% are scored as “−”)
  Brain homogenate Aβ42 Change Insoluble: − (Decreases in the levels of Aβ of 5 to 19% are scored as “−”)
  Brain homogenate Aβ42 Change Soluble: − (Decreases in the levels of Aβ of 5 to 19% are scored as “−”)

## COc1ccc([C@H](C)NCCCS(=O)(=O)O)cc1 [DZ, 3-[(S)-1-(4-methoxyphenyl)ethyl]amino-1-propanesulfonic acid]
[3]
  Brain homogenate Aβ42 Change Insoluble: −− (decreases of 20 to 38% are scored as “− −”)
[4]
  Brain homogenate Aβ40 Change Insoluble: −− (decreases of 20 to 38% are scored as “− −”)
  Brain homogenate Aβ40 Change Soluble: − (Decreases in the levels of Aβ of 5 to 19% are scored as “−”)
  Brain homogenate Aβ42 Change Insoluble: −− (decreases of 20 to 38% are scored as “− −”)
  Brain homogenate Aβ42 Change Soluble: −− (decreases of 20 to 38% are scored as “− −”)

## CCNCCCS(=O)(=O)O [CV, 3-ethylamino-1-propanesulfonic acid]
Brain Homogenate Vehicle Group, Day 14, total levels, soluble and insoluble not measured independently, 250 mg/kg daily
  Brain homogenate Aβ40 Change, total level: − (Decreases in the levels of Aβ of 5 to 19% are scored as “−”)
[7]
  Brain homogenate Aβ40 Change, total level: ++ (increases of 40 to 69% are scored as “++”)
  Brain homogenate Aβ42 Change, total level: +++ (increases of 70% or higher are scored as “+ + +”)
[5]
  Plasma Aβ40 Change: + (increases in the levels of Aβ (relative to untreated control) of 20 to 39% are scored as “+”)
  Plasma Aβ42 Change: ++ (increases of 40 to 69% are scored as “++”)
[6]
  Plasma Aβ40 Change: ++ (increases of 40 to 69% are scored as “++”)
  Plasma Aβ42 Change: ++ (increases of 40 to 69% are scored as “++”)

## O=S(=O)(O)CCCNC1CC2CCC1C2 (stereo not drawn) [BY, 3-(2-norbornyl)amino-1-propanesulfonic acid]
[3]
  Brain homogenate Aβ40 Change Insoluble: +++ (increases of 70% or higher are scored as “+ + +”)
  Brain homogenate Aβ40 Change Soluble: +++ (increases of 70% or higher are scored as “+ + +”)
  Brain homogenate Aβ42 Change Soluble: +++ (increases of 70% or higher are scored as “+ + +”)
[4]
  Brain homogenate Aβ40 Change Insoluble: +++ (increases of 70% or higher are scored as “+ + +”)
  Brain homogenate Aβ40 Change Soluble: + (increases in the levels of Aβ (relative to untreated control) of 20 to 39% are scored as “+”)
  Brain homogenate Aβ42 Change Insoluble: +++ (increases of 70% or higher are scored as “+ + +”)
[5]
  Plasma Aβ40 Change: + (increases in the levels of Aβ (relative to untreated control) of 20 to 39% are scored as “+”)
  Plasma Aβ42 Change: + (increases in the levels of Aβ (relative to untreated control) of 20 to 39% are scored as “+”)
